Results reported in patent US6187906A, “Methods to improve neural outcome” (Aukland Uniservices Limited, priority 1998, dated 2001).

How the values were obtained:
Format in all cases: in vivo, Wistar rats
[1] = test system: dopamine neurons in the pars compacta region of the substantia nigra; test: 6-OHDA lesion, count of TH immunopositive neurons in substantia nigra (Experiments 4 and 5)
Procedure: This experiment was blind with respect to the treatment (with GPE or the vehicle) and with respect to the counting of neurons expressing TH (between sections from animals treated with GPE or vehicle).
The objective of this experiment was to determine the effects of administering GPE on the expression of tyrosine hydroxylase (TH) in the presence or absence of CNS injury. […] Specifically, 9 pairs of adult male Wistar rats (280-320 g) were prepared under 3% halothane/O2 anaesthesia. The oxygen free radical producing neurotoxin 6-hydroxydopamine (6-OHDA) which produces degeneration of dopamine neurones (8 μg/2 μl) was injected into the median forebrain bundle using a 30 gauge needle (coordinates: anterior-posterior +4.7 mm, right +1.6 mm, vertical -8.5 mm). A guide cannula was placed on the dura 7.5 mm anterior from stereotaxic zero and 1.5 mm from the midline on the right. The rats were left to recover at room temperature. […]
The total counts of neurons were compared between the GPE and the vehicle treated group. Data were analysed with paired t-test and presented as mean ±sem.
Experiment 5 was performed using a second set of rats (9 pairs) using the same experimental parameters except that only the immunopositive neurons at 2 levels of the substantia nigra were counted.

[2] = test system: neurons in the CA1-2 region of the hippocampus
Procedure: The objective of this study was to compare the effects of treatment with GPE to that of a vehicle given 2 hours after an hypoxic-ischemic injury. The dose range of 2 to 200 μg was chosen to span a range of systemic doses that are greater than that required centrally (see experiment 3).
Unilateral hypoxic-ischemic injury was induced in 21 day old, 45±5 g Wistar rats. The rats underwent unilateral carotid ligation under light halothane anaesthesia.
Following one hour recovery they were placed in an incubator at 34 deg C. 85±5% humidity for one hour before the injury. They were subjected to […] inhalation hypoxia (Fi02.8.0%) and then returned to room temperature (22 deg C.) and normoxia. […]
Surviving and dead neurons were discriminated using the thionin/acid fuchsin staining technique (Guan et al J Cereb Blood Flow Metab. 13:609-616 (1993). The results, in which the height of a point is given by the ratio as a percentage of live neurones in the CA1-2 region on the right side to the number on the left side are shown in FIG. 5. Column A is vehicle, column B is 2 μg of GPE, column C is 20 μg of GPE, and column D is 200 μg of GPE. In this figure, the P value (0.031) was calculated by a method using one way ANOVA comparing many groups after Arcsin transformation.

[3] = test system: hypoxic-ischemic brain injury; test: Hypoxic-ischemic brain injury in adult rats, central GPE (Experiment 3)
Procedure: The objective of this study was to compare the effects of treatment with GPE to that of vehicle given 2 hours after a hypoxic-ischemic brain injury.
Unilateral hypoxic-ischemic injury was induced in adult 300±10 g) male Wistar rats. The rats underwent unilateral carotid ligation under light halothane anaesthesia. Following one hour recovery they were placed in an incubator at 34C at 85±5% humidity for one hour before injury. They were subjected to 10 min inhalational asphyxia (FiO2 6.0%) and maintained in the incubator for one hour after asphyxia. Two hours after the termination of the inhalation injury, a single stereotaxically controlled lateral cerebroventricular injection of either 3 μGPE (n=15) or phosphate buffered saline alone (n=15) was given. The animals were then maintained for 120 hrs, anaesthetized and the brains fixed in situ for histological assessment.
Surviving and dead neurons were discriminated with the use of a thionin/acid fuchsin staining technique [C. Williams, A. Gunn, C. Mallard, P. Gluckman Ped Res. (1990). A. Brown, J. Brierley, J. Neurol Sci, 16:59-84 (1971)]. The results are shown in FIG. 3; using a scoring technique. […] Similar to our previous study with IGF-1 the incidence of cortical infarction was lower following GPE treatment at 27% compared to the control/vehicle treated rats at 53% (Guan et al J Cereb Blood Flow Metab. 13:609-616 (1993)).
(The incidence of hippocampal damage was reduced following treatment with 3 μg GPE. The asterisk indicates a probability of under <0.05.
For this figure the columns A and B indicate the proportional loss of area (which can be extrapolated to indicate volume using the well-known principles of stereology) between the left and rights sides of the cortex of the brain, for either a control vehicle or 3 μG of GPE. Volumes were measured using computer-aided image analysis techniques. […] Neurones were counted after staining, with the aid of a microscope. […] Thus a single central injection of GPE following an asphyxial injury in the adult rat was associated with a marked improvement in outcome as assessed histologically.

SMILES: NCC(=O)N1CCC[C@H]1C(=O)N[C@@H](CCC(=O)O)C(=O)O [GPE, gly-pro-glu]
- protection of dopaminergic neurons against 6-OHDA (TH expression in SNc) ([1]; Experiments 4 and 5): provided protection
- number of TH immunopositive dopamine neurons ([1]; lesioned (right) side, 3 μg GPE 2 hours after 6-OHDA, 14 days, Experiment 4): increased
- loss of neurons in the CA1-2 region of the hippocampus ([2]; 20 μg GPE single intraperitoneal injection 2 hours after injury, 120 hrs, p<0.05): reduced the loss of neurons
- crossing of the blood-brain barrier ([2]; rat, in vivo): can cross the blood-brain barrier
- incidence of hippocampal damage in the ligated hemisphere ([3]; 3 μg GPE 2 hours after hypoxia, p<0.05 vs vehicle): reduced the incidence of hippocampal damage
- incidence of cortical infarction ([3]; 3 μg GPE lateral cerebroventricular injection 2 hours after injury, 120 hrs, vehicle 53%): 27%
- number of damaged cells (FIG. 4, cortex area and live hippocampal neurones R/L) ([3]; 3 μg GPE, single central injection, p 0.04): significant reduction in the number of damaged cells
